One may read the inhibition as the percentage by which the read-out fell short of the control. For orientation: EC50 means the concentration giving half of the maximal effect. A low value points to greater potency. Broadly, the IC50 is the midpoint of a concentration-inhibition curve.

Consider one molecule from ChEMBL document CHEMBL4311997, “Discovery of a potent histone deacetylase (HDAC) 3/6 selective dual inhibitor” (Eur J Med Chem, 2019).

In data set [1] the target is Histone-lysine N-methyltransferase SUV39H1 (Homo sapiens) (UniProt O43463). As to the kind of experiment: Inhibition of human SUV39H1 at 100 uM using histone H3 as substrate incubated for 1 hr in presence of [3H]-SAM by filter binding method relative to control.
Sequence of Histone-lysine N-methyltransferase SUV39H1 (Homo sapiens) (O43463 whole entry, the tested form may be a part): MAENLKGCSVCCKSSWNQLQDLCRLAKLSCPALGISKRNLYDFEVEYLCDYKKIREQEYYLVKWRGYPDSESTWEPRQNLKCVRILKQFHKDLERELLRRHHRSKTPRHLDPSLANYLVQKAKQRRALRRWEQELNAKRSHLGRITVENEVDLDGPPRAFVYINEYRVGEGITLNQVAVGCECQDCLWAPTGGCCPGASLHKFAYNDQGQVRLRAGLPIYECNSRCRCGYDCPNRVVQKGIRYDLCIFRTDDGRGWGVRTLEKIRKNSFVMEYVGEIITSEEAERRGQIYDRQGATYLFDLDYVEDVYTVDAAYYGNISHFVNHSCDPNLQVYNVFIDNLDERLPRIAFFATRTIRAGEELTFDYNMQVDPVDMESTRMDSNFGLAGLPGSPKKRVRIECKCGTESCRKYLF
Data set [2] deals with Histone-lysine N-methyltransferase EHMT2 (Homo sapiens) (UniProt Q96KQ7). As to the kind of experiment: Inhibition of human G9a at 100 uM using core histone H3 (1 to 21 residues) as substrate incubated for 1 hr in presence of [3H]-SAM by filter binding method relative to control.
Sequence of Histone-lysine N-methyltransferase EHMT2 (Homo sapiens) (Q96KQ7 whole entry, the tested form may be a part): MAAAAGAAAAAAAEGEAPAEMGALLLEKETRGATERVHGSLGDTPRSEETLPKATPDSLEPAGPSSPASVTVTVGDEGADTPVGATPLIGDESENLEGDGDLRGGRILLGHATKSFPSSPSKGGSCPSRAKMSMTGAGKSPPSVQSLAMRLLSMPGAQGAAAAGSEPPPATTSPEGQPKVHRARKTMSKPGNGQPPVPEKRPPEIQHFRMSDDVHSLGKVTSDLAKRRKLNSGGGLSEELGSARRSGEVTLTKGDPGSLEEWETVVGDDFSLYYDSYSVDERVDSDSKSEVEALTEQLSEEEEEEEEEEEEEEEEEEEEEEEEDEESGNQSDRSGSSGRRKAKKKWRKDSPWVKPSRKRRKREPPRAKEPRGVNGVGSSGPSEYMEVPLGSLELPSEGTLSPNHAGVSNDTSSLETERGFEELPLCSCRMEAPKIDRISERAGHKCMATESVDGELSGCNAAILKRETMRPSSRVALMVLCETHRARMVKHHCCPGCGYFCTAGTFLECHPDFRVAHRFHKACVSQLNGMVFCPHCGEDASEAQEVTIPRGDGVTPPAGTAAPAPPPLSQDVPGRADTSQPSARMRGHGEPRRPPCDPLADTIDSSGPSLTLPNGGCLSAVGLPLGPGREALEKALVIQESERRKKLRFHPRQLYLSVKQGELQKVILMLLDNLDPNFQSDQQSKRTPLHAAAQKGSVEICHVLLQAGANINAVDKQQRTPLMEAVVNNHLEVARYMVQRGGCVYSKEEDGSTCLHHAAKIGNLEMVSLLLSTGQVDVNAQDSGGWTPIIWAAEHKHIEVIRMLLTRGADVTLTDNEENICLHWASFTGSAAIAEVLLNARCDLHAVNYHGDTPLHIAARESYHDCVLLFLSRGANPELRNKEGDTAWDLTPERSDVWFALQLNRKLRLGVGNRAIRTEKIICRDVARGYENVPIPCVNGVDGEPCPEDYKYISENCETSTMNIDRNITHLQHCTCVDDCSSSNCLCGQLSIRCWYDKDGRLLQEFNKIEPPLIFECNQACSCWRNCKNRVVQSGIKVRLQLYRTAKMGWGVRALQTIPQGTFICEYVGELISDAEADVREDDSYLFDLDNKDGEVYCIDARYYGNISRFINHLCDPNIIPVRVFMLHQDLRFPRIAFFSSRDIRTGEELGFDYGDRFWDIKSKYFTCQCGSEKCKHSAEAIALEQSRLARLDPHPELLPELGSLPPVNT
In data set [3] the target is Histone deacetylase 9 (Homo sapiens) (UniProt Q9UKV0). As to the kind of experiment: Inhibition of human HDAC9 at 10 uM using Acetyl-Lys (trifluoroacetyl)-AMC) as substrate incubated for 2 hrs by fluorescence assay relative to control.
Sequence of Histone deacetylase 9 (Homo sapiens) (Q9UKV0 whole entry): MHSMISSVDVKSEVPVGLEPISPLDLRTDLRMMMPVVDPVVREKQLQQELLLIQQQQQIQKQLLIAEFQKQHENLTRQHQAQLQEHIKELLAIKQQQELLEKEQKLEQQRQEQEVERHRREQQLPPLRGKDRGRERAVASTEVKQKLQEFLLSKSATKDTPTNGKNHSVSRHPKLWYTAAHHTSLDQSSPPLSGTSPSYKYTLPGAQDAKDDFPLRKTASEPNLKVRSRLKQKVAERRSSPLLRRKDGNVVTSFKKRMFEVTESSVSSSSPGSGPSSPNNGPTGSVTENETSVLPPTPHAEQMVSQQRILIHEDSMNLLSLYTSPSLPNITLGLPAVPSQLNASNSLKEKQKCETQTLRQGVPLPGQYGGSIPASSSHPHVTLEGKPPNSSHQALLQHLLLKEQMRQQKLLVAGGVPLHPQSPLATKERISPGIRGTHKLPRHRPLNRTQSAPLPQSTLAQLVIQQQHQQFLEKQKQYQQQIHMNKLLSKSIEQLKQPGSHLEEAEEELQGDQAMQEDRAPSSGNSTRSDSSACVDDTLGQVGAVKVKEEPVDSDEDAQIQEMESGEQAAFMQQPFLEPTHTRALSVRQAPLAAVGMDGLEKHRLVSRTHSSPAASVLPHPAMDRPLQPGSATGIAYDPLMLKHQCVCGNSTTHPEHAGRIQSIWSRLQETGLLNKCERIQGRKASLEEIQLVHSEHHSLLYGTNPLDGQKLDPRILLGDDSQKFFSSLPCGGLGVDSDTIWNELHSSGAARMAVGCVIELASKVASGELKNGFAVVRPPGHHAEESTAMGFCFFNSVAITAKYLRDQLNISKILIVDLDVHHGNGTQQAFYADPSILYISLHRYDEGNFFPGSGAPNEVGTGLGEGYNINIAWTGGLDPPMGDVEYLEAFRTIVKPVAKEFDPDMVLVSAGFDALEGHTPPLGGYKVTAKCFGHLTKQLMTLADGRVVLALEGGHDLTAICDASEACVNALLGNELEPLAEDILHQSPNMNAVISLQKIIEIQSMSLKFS
Data set [4] concerns the target Histone deacetylase 5 (Homo sapiens) (UniProt Q9UQL6). As to the kind of experiment: Inhibition of human HDAC5 at 10 uM using Acetyl-Lys (trifluoroacetyl)-AMC) as substrate incubated for 2 hrs by fluorescence assay relative to control.
In a further data set the test system is MCF7. The data set can be described thus: Antiproliferative activity against human MCF7 cells incubated for 72 hrs by MTT assay. To be noted: MCF7, 72 h. The data set is classed as functional, cell-based.
For the next data set, the system named is MOLM-14. The data set can be described thus: Antiproliferative activity against human MOLM14 cells incubated for 48 hrs by CellTiter-Glo luminescent cell viability assay. To be noted: MOLM-14, 48 h. In kind it is functional, cell-based.
Data set [5] concerns MDA-MB-231. As to the kind of experiment: Induction of apoptosis in human MDA-MB-231 cells assessed as late apoptotic cells at 3 uM incubated for 48 hrs by Annexin V-FITC/PI staining by flow cytometric analysis (reference value: 3%). The data set is classed as functional. For orientation: A flow cytometer gives signals particle by particle.
Data set [6] has as its system MDA-MB-231. As to the kind of experiment: Induction of apoptosis in human MDA-MB-231 cells assessed as viable cells at 6 uM incubated for 48 hrs by Annexin V-FITC/PI staining by flow cytometric analysis (reference value: 77%). The following applies: MDA-MB-231, 48 h, read-out: Activity. In kind it is functional.
Data set [7] concerns MDA-MB-231. As to the kind of experiment: Induction of apoptosis in human MDA-MB-231 cells assessed as early apoptotic cells at 9 uM incubated for 48 hrs by Annexin V-FITC/PI staining by flow cytometric analysis (reference value: 5%). The data set is classed as functional.
In another data set the test system is KMS-12-BM. As to the kind of experiment: Effect on human KMS-12-BM cells assessed as increase in H3K9Me2 level at 2.5 to 10 uM incubated for 24 hrs by Western blot analysis. The data set is classed as functional, cell-based. Background: In western blotting, separated proteins are transferred to a membrane and probed.
Data set [8] can be described thus: Cytotoxicity against human AC10 cells incubated for 24 hrs by CellTiter-Glo Cell Viability Assay. The data set is classed as cell-based. The following applies: AC10, 24 h. (In ATP-based viability assays light output follows the ATP content of the culture.)
Data set [9] in a line: Genotoxicity in Salmonella typhimurium TA100 in presence of S9 fraction incubated for 48 hrs by Ames test relative to control. In kind it is toxicity, subcellular. The following applies: salmonella enterica subsp. enterica serovar typhimurium, s9, 48 h.
The next data set deals with Histone deacetylase 1 (Homo sapiens, UniProt Q13547).
Sequence of Histone deacetylase 1 (Q13547 whole entry): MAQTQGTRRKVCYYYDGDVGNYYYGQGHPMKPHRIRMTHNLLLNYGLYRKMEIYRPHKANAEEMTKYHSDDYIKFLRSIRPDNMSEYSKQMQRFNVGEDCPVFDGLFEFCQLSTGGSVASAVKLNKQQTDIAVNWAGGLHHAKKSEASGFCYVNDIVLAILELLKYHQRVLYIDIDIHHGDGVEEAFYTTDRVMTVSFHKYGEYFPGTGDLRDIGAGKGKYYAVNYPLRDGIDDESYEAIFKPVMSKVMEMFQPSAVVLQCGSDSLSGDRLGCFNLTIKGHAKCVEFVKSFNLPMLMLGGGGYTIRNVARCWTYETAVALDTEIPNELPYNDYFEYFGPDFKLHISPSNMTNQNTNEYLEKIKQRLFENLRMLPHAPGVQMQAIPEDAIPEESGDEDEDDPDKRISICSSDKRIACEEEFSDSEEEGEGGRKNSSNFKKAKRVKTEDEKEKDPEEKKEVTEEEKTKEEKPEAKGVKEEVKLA

Active and inactive are the calls of the source. No cut-off for these calls is given here.

Sequence of Histone deacetylase 5 (Homo sapiens) (Q9UQL6 whole entry): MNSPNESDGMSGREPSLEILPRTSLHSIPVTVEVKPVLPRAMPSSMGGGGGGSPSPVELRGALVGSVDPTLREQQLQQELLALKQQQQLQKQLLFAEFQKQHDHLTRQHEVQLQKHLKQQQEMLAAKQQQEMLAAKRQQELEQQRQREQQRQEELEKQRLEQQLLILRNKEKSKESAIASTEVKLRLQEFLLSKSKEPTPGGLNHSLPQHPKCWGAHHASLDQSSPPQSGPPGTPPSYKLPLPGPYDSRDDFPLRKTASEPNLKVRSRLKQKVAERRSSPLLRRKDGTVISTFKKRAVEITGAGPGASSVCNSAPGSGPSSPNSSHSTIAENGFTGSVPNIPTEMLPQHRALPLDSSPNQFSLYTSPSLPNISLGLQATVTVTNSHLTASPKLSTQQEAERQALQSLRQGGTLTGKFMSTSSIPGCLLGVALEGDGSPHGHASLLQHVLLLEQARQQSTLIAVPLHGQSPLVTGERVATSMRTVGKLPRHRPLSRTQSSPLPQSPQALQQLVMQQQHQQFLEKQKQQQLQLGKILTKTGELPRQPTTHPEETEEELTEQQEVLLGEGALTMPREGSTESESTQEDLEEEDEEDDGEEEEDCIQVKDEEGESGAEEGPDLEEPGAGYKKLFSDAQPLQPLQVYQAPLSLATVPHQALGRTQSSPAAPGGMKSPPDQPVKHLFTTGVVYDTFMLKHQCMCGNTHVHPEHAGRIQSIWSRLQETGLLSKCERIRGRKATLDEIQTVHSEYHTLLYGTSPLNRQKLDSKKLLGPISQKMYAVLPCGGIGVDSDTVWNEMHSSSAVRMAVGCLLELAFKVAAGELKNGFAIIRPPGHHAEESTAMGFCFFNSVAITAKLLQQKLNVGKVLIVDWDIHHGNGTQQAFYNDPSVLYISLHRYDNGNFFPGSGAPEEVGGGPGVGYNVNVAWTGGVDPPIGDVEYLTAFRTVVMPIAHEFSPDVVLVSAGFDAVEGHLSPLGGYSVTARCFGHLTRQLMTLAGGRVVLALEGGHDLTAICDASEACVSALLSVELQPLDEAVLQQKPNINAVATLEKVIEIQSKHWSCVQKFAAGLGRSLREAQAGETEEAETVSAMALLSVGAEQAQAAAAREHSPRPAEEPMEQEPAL
Description for Histone deacetylase 1: Inhibition of human HDAC1 using Arg-His-Lys-Lys (Ac) as substrate incubated for 2 hrs by fluorescence assay

As to `COc1ccc(CN2CCC(Nc3nc(Nc4ccc(NC(=O)CCCCCCC(=O)NO)cc4)nc4cc(OC)c(OC)cc34)CC2)cc1`, the inhibition is 14% in data set [1], 37% in data set [2], 21% in [3] and 25% in [4]. Further, the EC50 in the data set with MCF7 was determined as 7.3 µM; with MOLM-14 it was 2.8 µM; in [8] it was 94 µM. For the same molecule, the results for the Activity (with MDA-MB-231 [5]; in the data set with MDA-MB-231 [7]; in data set [9]) were 15%, 24% and “Non-Toxic”, respectively. In addition, in the data set with MDA-MB-231 [6], the viability at 6 µM was 52%. The outcome in the data set with KMS-12-BM was Active. Besides, the concentration for half-maximal inhibition (IC50) at Histone deacetylase 1 amounted to 0.896 µM.
